What all share (format): cell-based, human
Test [1] has as its system MELOE-1 specific CD4 T cells. Kind of test: MELOE-1 CD4+ T cell responses in PBMC from melanoma patients: restimulation with peptides, CD4/IFN-γ (Th1) and CD4/IL4 (Th2) staining. The settings on record: for mean % of cytokine producing CD4 T cells, in positive microcultures (IFN-γ): Th1; for mean % of cytokine producing CD4 T cells, in positive microcultures (IL4): Th2; for Th1 responses (IFN-γ positive microcultures) / Th2 responses (IL4 positive microcultures): positive/tested microcultures. As to the method: PBMC from melanoma patients were stimulated with 10 μM of MELOE-1. After 14 days, the presence of CD4 T cells specific for the different regions of MELOE-1 was assessed by restimulating cells with MELOE-12-21, MELOE-111-30 and MELOE-122-46 peptides, followed by CD4/IFN-γ double staining for the detection of Th1 responses, and by CD4/IL4 double staining for Th2 responses. Between brackets is indicated the mean % of cytokine producing CD4 T cells, in positive microcultures.
(§1) PBMC from healthy donors or melanoma patients (2·10^5 cells/well) were cultured for 14 days with 10 μM of MELOE-1 whole antigen (46 amino acids) in RPMI medium supplemented with 8% HS, 50 IU/ml of rIL-2 (Chiron, France) and L-Glutamin, in 96-well multiplates. Microcultures were then restimulated individually with each overlapping peptide (MELOE-12-21, MELOE-111-30, MELOE-118-37, MELOE-12646 or MELOE-122-46 for melanoma patients) in the presence of 10 μg/mL brefeldin A for 5 hours and the percentage of CD4^+ specific T cells was assessed by TNF-α, IFN-γ or IL-4 intracellular staining. A negative control without peptide was included in all experiments.
In order to confirm the immunogenicity of each MELOE-1 regions in melanoma patients, we stimulated melanoma patients PBMC with the MELOE-1 whole protein, and tested the reactivity of stimulated lymphocytes towards the three most immunogenic regions: 2-21, 11-30, and 22-46. For this study, instead of challenging microcultures with the 18-37 peptide, that appeared poorly immunogenic, we extended the C-terminus region from 26-46 to 22-46, in order to also detect responses to our previously described HLA-DR11-restricted epitope (24-37). […] We tested the induction of CD4 specific responses from MELOE-1 stimulated PBMC of […] melanoma patients. We documented CD4 responses specific for the central region of MELOE-1 (11-30) for 7/9 patients, whereas responses specific for MELOE-12-21 and MELOE-122-46 were respectively detected in 4/9 and 5/9 patients (Table III). These responses were mainly Th1 responses (IFN-g production) while less frequent Th2 responses specific for the three regions of MELOE-1 were detected in 3/9 patients for MELOE-12-21, 2/9 patients for MELOE-111-30 and 5/9 patients for MELOE-122-46 (Table III). […] Concerning Th2 responses, much less frequent, the C-term region appeared to induce more frequently the growth of IL-4 producing CD4 T cells than the two other regions (FIG. 2A). […] In summary, stimulation of patient's PBMC with MELOE-1 induced Th1 responses specific for diverse epitopes located all along the protein sequence, and among the different regions, the central region (11-30) and the C-term region (22-46) appeared to be especially immunogenic in term of frequency of responses.

In test [2] the test system is MELOE-1 specific CD4+ T cells. Kind of test: MELOE-1 CD4+ T cell responses in PBMC from healthy donors: restimulation of microcultures with overlapping peptides, CD4/TNF-α staining. The conditions noted are these: for Microcultures containing MELOE-1 specific CD4+ T cells (TNF-α production): positive/tested microcultures; for donors in which CD4 responses against the region were detected: seven healthy donors. The method, then:
PBMC from healthy donors were stimulated with 10 μM of MELOE-1. After 14 days, the presence of CD4 T cells specific for the different regions of MELOE-1 was assessed by restimulating cells with MELOE-12-21, MELOE-111-30, MELOE-118-37 and MELOE-126-46 peptides, followed by CD4/TNF-α double staining and flow cytometry analysis. Between brackets is indicated the mean % of TNF-α producing CD4 T cells, in positive microcultures. NA: not available.
as §1
Our purpose was to look for the existence of class II helper epitopes all along MELOE-1 sequence (SEQ ID NO:20), in order to document the immunogenicity of the different regions of this melanoma antigen. We stimulated 2·10^7 PBMC from seven healthy donors with MELOE-1 whole antigen and tested, after a 14-day culture period the presence of CD4 T cells specific for each region of the protein. Microcultures were screened for TNFα production by CD4+ T cells, after restimulation with four MELOE-1 derived overlapping peptides (Table I), in an autopresentation assay. […] On the contrary, the central region 18-37, containing an already described DR11-restricted epitope (24-37) located just at the end of this 20-mer peptide (Rogel et al., 2011), induced specific responses in microcultures deriving from only 2/7 donors (HD9 and HD17, both expressing the DR11 element). In these two donors, we detected 6 and 7% of positive microcultures, containing between 0.6 to 3.7% of TNFα producing CD4 T cells.

For test [3], the system named is CD4 T cell clone 4E2-DQβ1*0201. Kind of test: Cytokine profile of CD4 T cell clone stimulated with cognate peptide (intracellular staining). The settings on record: cognate peptide 10 μM, 5 hours. As to the method:
Lymphocytes were stimulated for 5 hours in the presence of brefeldin A (10 μg/mL) either with peptide alone (10 μM) in an autopresentation assay or with B-EBV or HLA-class II expressing melanoma cells pulsed 2 hours with the cognate peptide, at a ratio 1:2. In some experiments, blocking mAb against HLA-DP (clone B7.21 from Dr Charron, UMR940, Paris), HLA-DQ (clone SPVL3, Beckman Coulter) or HLA-DR (clone L243, BD Biosciences) were added at a concentration of 12.5 μg/ml. Cells were then stained with APC-conjugated anti-CD4 mAb, fixed with 4% paraformaldehyde, labeled with PE-conjugated anti-cytokine mAb and analyzed by flow cytometry.
We also documented the T helper profile of each T cell clone, by stimulating the CD4 T cell clones with the cognate peptide, and analyzing cytokine production. All the clones expressed Th1 cytokines (TNFα, IFNγ, IL2 and GM-CSF). On the contrary, these clones differ in their expression of Th2 cytokines. Indeed, the two DQ2 restricted T cell clones (9C12 and 4E2) and the DR1 restricted one (5F9) also strongly express two Th2 cytokines (IL4, and IL13), whereas the DR11-restricted T cell clone only weakly expressed IL4 (Table IV). None of the CD4 T cell expresses IL10 or IL5 at a significant level.

Setting [4] is: donor HD9 (DPβ1*0902/1501, DQβ1*0301, DRβ1*1104/1201).
[5] abbreviates: donor HD17 (DPβ1*0401/0301, DQβ1*0301/0603, DRβ1*1101/1301).
[6] abbreviates: donor HD22 (DPβ1*0401/1101, DQβ1*0202, DRβ1*0701).
The mark [7] stands for this setting: donor HD24 (DPβ1*0401/0101, DQβ1*0501/0602, DRβ1*0101/1501).
The mark [8] stands for this setting: donor HD25 (DPβ1*0401/0402, DQβ1*0201, DRβ1*0301).
Where [9] appears, read: donor HD27 (DQβ1*501/0201, DRβ1*0101/0301).

For the sequence “AACPPWHPSERISSTLNDECWPASL [MELOE-122-46]”, the “Th1 responses, % of tested microcultures” value in test [1] (576 tested microcultures from melanoma patients, IFN-γ) is reported as 9.6%. The “patients in which Th2 responses were detected” value in test [1] (melanoma patients, IL4) is given as 5/9. Also, the “patients in which CD4 responses specific for the region were detected” value in test [1] (melanoma patients, Table III, Th1 (IFN-γ)) is recorded as 5/9. Also, the “mean % of cytokine producing CD4 T cells, in positive microcultures (IFN-γ)” value was “(4.8% ± 7.2)” in test [1] (patient Pt ≠ 1); “(0.6% ± 0.02)” in test [1] (patient Pt ≠ 2); “(1.9% ± 1.3)” in test [1] (patient Pt ≠ 3); “(2.9% ± 3.5)” in test [1] (patient Pt ≠ 7); “(0.5%)” in test [1] (patient Pt ≠ 8). Besides, the “mean % of cytokine producing CD4 T cells, in positive microcultures (IL4)” value is “(0.8% ± 0.3)” in test [1] (patient Pt ≠ 1); “(0.8%)” in test [1] (patient Pt ≠ 5); “(1.5% ± 0.7)” in test [1] (patient Pt ≠ 7); “(0.6%)” in test [1] (patient Pt ≠ 8); “(0.7% ± 0.15)” in test [1] (patient Pt ≠ 9). The “Th1 responses (IFN-γ positive microcultures)” value in test [1] (patient Pt ≠ 1) is on record as 11/48; in test [1] (patient Pt ≠ 2), 2/96; in test [1] (patient Pt ≠ 3 (DPβ1*0201/2001, DQβ1*0303/0501, DRβ1*0101/0701)), 4/96; in test [1] (patient Pt ≠ 4), 0/48; in test [1] (patient Pt ≠ 5), 0/48; in test [1] (patient Pt ≠ 6) it was 0/48. Moreover, the “Th1 responses (IFN-γ positive microcultures)” value was 28/48 in test [1] (patient Pt ≠ 7), 1/48 in test [1] (patient Pt ≠ 8) and 0/48 in test [1] (patient Pt ≠ 9). The “Th2 responses (IL4 positive microcultures)” value in test [1] (patient Pt ≠ 1) is reported as 4/48; in test [1] (patient Pt ≠ 2) it was 0/96; in test [1] (patient Pt ≠ 3), 0/96; in test [1] (patient Pt ≠ 4), 0/48; in test [1] (patient Pt ≠ 5) it was 1/48; in test [1] (patient Pt ≠ 6), 0/48. For the same sequence, the “Th2 responses (IL4 positive microcultures)” value is 7/48 in test [1] (patient Pt ≠ 7), 1/48 in test [1] (patient Pt ≠ 8) and 3/48 in test [1] (patient Pt ≠ 9).
PSEGAACPPWHPSERISSTL [MELOE-118-37]: the “mean % of TNF-α producing CD4 T cells, in positive microcultures” value in test [2] (donor HD9) was “(1.4% ± 0.6)”; in test [2] (donor HD17), “(3% ± 0.7)”. The “Microcultures containing MELOE-1 specific CD4+ T cells (TNF-α production)” value is on record as 6/96 in test [2] (setting [4]); 7/96 in test [2] (setting [5]); 0/96 in test [2] (setting [6]); 0/96 in test [2] (setting [7]); 0/96 in test [2] (setting [8]); 0/96 in test [2] (setting [9]). For the same sequence, in test [2] (donor HD28 (DRβ1*0301)), the “Microcultures containing MELOE-1 specific CD4+ T cells (TNF-α production)” value is recorded as 0/48. The “% of positive microcultures” value was determined as 6% in test [2] (healthy donor HD9 (first of the two donors named)) and 7% in test [2] (healthy donor HD17 (second of the two donors named)). In addition, the “donors in which CD4 responses against the region were detected” value in test [2] was 2/7.
Consider PWHPSERISSTLNDECWPASL [MELOE-126-46], for which the “mean % of TNF-α producing CD4 T cells, in positive microcultures” value is on record as “(1.5% ± 0.5)” in test [2] (donor HD9), “(5.2% ± 4.1)” in test [2] (donor HD17), “(1% ± 0.1)” in test [2] (donor HD22) and “(1.1% ± 0.9)” in test [2] (donor HD25). Besides, the “Microcultures containing MELOE-1 specific CD4+ T cells (TNF-α production)” value is reported as 5/96 in test [2] (setting [4]); 10/96 in test [2] (setting [5]); 2/96 in test [2] (setting [6]); 0/96 in test [2] (setting [7]); 15/96 in test [2] (setting [8]); 0/96 in test [2] (setting [9]). The “Microcultures containing MELOE-1 specific CD4+ T cells (TNF-α production)” value in test [2] (donor HD28 (DRβ1*0301)) is 0/96. Also, in test [2], the “donors in which CD4 responses against the region were detected” value is on record as 4 out of 7. Further, the “Cytokine profile: GM-CSF” value in test [3] is “GM-CSF^high”. Besides, in test [3], the “Cytokine profile: IFN” value is on record as “IFN^high”. The “Cytokine profile: IL2” value in test [3] is reported as “IL2^high”. Besides, the “Cytokine profile: IL4” value in test [3] is on record as “IL4^high”. Besides, in test [3], the “Cytokine profile: IL5” value is given as “IL5^low”. For the same sequence, the “Cytokine profile: IL10” value in test [3] is given as “IL10^neg”. Further, in test [3], the “Cytokine profile: IL13” value is reported as “IL13^high”. Further, the “Cytokine profile: TNF” value in test [3] is given as “TNF^high”.
